From the supplement of paper PMC10307832

Key:
Assay in all cases: relative viability (nuclei count vs DMSO), 5 days (fraction); higher = more cells survive
NCI-H1666 = system: NCI-H1666
Procedure, shortened: (§1)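 The day after seeding in 1536-well plates, lung cancer cell lines were treated by pin tool with a single drug, or with a fixed anchor-drug dose together with five library-drug doses (not always all listed) in √10 steps. After 5 days, a combined fix-and-stain solution (final 0.05% Triton X-100, 1% formaldehyde, 1 ug/ml Hoechst) was added. Nuclei counted on 4× images gave relative viability as treated counts over vehicle counts, reported as the median of duplicate plates.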

NCI-H838 = system: NCI-H838
Procedure, shortened: as §1

UMC-11 = system: UMC-11
Procedure, shortened: as §1

ChaGo-K-1 = system: ChaGo-K-1
Procedure, shortened: as §1

NCI-H650 = system: NCI-H650
Procedure, shortened: as §1

HCC-15 = system: HCC-15
Procedure, shortened: as §1

LXF-289 = system: LXF-289
Procedure, shortened: as §1

PC-3 [JPC-3] = system: PC-3 [JPC-3]
Procedure, shortened: as §1

NCI-H322M = system: NCI-H322M
Procedure, shortened: as §1

NCI-H661 = system: NCI-H661
Procedure, shortened: as §1

NCI-H2087 = system: NCI-H2087
Procedure, shortened: as §1

NCI-H2342 = system: NCI-H2342
Procedure, shortened: as §1

NCI-H1651 = system: NCI-H1651
Procedure, shortened: as §1

LK-2 = system: LK-2
Procedure, shortened: as §1

NCI-H596 = system: NCI-H596
Procedure, shortened: as §1

NCI-H1944 = system: NCI-H1944
Procedure, shortened: as §1

LU99A = system: LU99A
Procedure, shortened: as §1

BEN = system: BEN
Procedure, shortened: as §1

NCI-H358 = system: NCI-H358
Procedure, shortened: as §1

LC-2-ad = system: LC-2-ad
Procedure, shortened: as §1

LCLC-97TM1 = system: LCLC-97TM1
Procedure, shortened: as §1

HCC-78 = system: HCC-78
Procedure, shortened: as §1

SK-MES-1 = system: SK-MES-1
Procedure, shortened: as §1

SMILES: O=C(O)c1ccc(-c2c[nH]c3ncc(-c4ccccc4)cc23)cc1C1CCCC1 + Cc1cc(Nc2cc(N3CCN(C)CC3)nc(Sc3ccc(NC(=O)C4CC4)cc3)n2)n[nH]1 [Tozasertib] (partner 0.1 µM)
- relative viability (NCI-H1666; first compound 0.04 µM): 0.627
- relative viability (NCI-H1666; first compound 0.1265 µM): 0.587
- relative viability (NCI-H1666; first compound 0.4 µM): 0.546
- relative viability (NCI-H1666; first compound 1.265 µM): 0.419
- relative viability (NCI-H838; first compound 0.04 µM): 0.291
- relative viability (NCI-H838; first compound 0.1265 µM): 0.274
- relative viability (NCI-H838; first compound 0.4 µM): 0.232
- relative viability (NCI-H838; first compound 1.265 µM): 0.229
- relative viability (UMC-11; first compound 0.04 µM): 0.189
- relative viability (UMC-11; first compound 0.1265 µM): 0.197
- relative viability (UMC-11; first compound 0.4 µM): 0.199
- relative viability (UMC-11; first compound 1.265 µM): 0.191
- relative viability (ChaGo-K-1; first compound 0.04 µM): 0.213
- relative viability (ChaGo-K-1; first compound 0.1265 µM): 0.225
- relative viability (ChaGo-K-1; first compound 0.4 µM): 0.242
- relative viability (ChaGo-K-1; first compound 1.265 µM): 0.215
- relative viability (NCI-H650; first compound 0.04 µM): 0.706
- relative viability (NCI-H650; first compound 0.1265 µM): 0.691
- relative viability (NCI-H650; first compound 0.4 µM): 0.641
- relative viability (NCI-H650; first compound 1.265 µM): 0.351
- relative viability (HCC-15; first compound 0.04 µM): 0.403
- relative viability (HCC-15; first compound 0.1265 µM): 0.502
- relative viability (HCC-15; first compound 0.4 µM): 0.307
- relative viability (HCC-15; first compound 1.265 µM): 0.151
- relative viability (LXF-289; first compound 0.04 µM): 0.229
- relative viability (LXF-289; first compound 0.1265 µM): 0.187
- relative viability (LXF-289; first compound 0.4 µM): 0.126
- relative viability (LXF-289; first compound 1.265 µM): 0.143
- relative viability (PC-3 [JPC-3]; first compound 0.04 µM): 0.926
- relative viability (PC-3 [JPC-3]; first compound 0.1265 µM): 0.881
- relative viability (PC-3 [JPC-3]; first compound 0.4 µM): 0.766
- relative viability (PC-3 [JPC-3]; first compound 1.265 µM): 0.65
- relative viability (NCI-H322M; first compound 0.04 µM): 0.472
- relative viability (NCI-H322M; first compound 0.1265 µM): 0.521
- relative viability (NCI-H322M; first compound 0.4 µM): 0.452
- relative viability (NCI-H322M; first compound 1.265 µM): 0.437
- relative viability (NCI-H661; first compound 0.04 µM): 0.367
- relative viability (NCI-H661; first compound 0.1265 µM): 0.36
- relative viability (NCI-H661; first compound 0.4 µM): 0.353
- relative viability (NCI-H661; first compound 1.265 µM): 0.34
- relative viability (NCI-H2087; first compound 0.04 µM): 0.248
- relative viability (NCI-H2087; first compound 0.1265 µM): 0.29
- relative viability (NCI-H2087; first compound 0.4 µM): 0.227
- relative viability (NCI-H2087; first compound 1.265 µM): 0.186
- relative viability (NCI-H2342; first compound 0.04 µM): 0.588
- relative viability (NCI-H2342; first compound 0.1265 µM): 0.422
- relative viability (NCI-H2342; first compound 0.4 µM): 0.445
- relative viability (NCI-H2342; first compound 1.265 µM): 0.521
- relative viability (NCI-H1651; first compound 0.04 µM): 0.689
- relative viability (NCI-H1651; first compound 0.1265 µM): 0.708
- relative viability (NCI-H1651; first compound 0.4 µM): 0.559
- relative viability (NCI-H1651; first compound 1.265 µM): 0.481
- relative viability (LK-2; first compound 0.04 µM): 0.186
- relative viability (LK-2; first compound 0.1265 µM): 0.161
- relative viability (LK-2; first compound 0.4 µM): 0.181
- relative viability (LK-2; first compound 1.265 µM): 0.184
- relative viability (NCI-H596; first compound 0.04 µM): 0.863
- relative viability (NCI-H596; first compound 0.1265 µM): 0.802
- relative viability (NCI-H596; first compound 0.4 µM): 0.851
- relative viability (NCI-H596; first compound 1.265 µM): 0.93
- relative viability (NCI-H1944; first compound 0.04 µM): 0.231
- relative viability (NCI-H1944; first compound 0.1265 µM): 0.259
- relative viability (NCI-H1944; first compound 0.4 µM): 0.233
- relative viability (NCI-H1944; first compound 1.265 µM): 0.249
- relative viability (LU99A; first compound 0.04 µM): 0.268
- relative viability (LU99A; first compound 0.1265 µM): 0.253
- relative viability (LU99A; first compound 0.4 µM): 0.281
- relative viability (LU99A; first compound 1.265 µM): 0.257
- relative viability (BEN; first compound 0.04 µM): 0.603
- relative viability (BEN; first compound 0.1265 µM): 0.501
- relative viability (BEN; first compound 0.4 µM): 0.49
- relative viability (BEN; first compound 1.265 µM): 0.437
- relative viability (NCI-H358; first compound 0.04 µM): 0.0826
- relative viability (NCI-H358; first compound 0.1265 µM): 0.107
- relative viability (NCI-H358; first compound 0.4 µM): 0.0884
- relative viability (NCI-H358; first compound 1.265 µM): 0.0978
- relative viability (LC-2-ad; first compound 0.04 µM): 0.482
- relative viability (LC-2-ad; first compound 0.1265 µM): 0.407
- relative viability (LC-2-ad; first compound 0.4 µM): 0.399
- relative viability (LC-2-ad; first compound 1.265 µM): 0.402
- relative viability (LCLC-97TM1; first compound 0.04 µM): 0.338
- relative viability (LCLC-97TM1; first compound 0.1265 µM): 0.315
- relative viability (LCLC-97TM1; first compound 0.4 µM): 0.243
- relative viability (LCLC-97TM1; first compound 1.265 µM): 0.188
- relative viability (HCC-78; first compound 0.1265 µM): 0.468
- relative viability (HCC-78; first compound 0.4 µM): 0.405
- relative viability (HCC-78; first compound 1.265 µM): 0.345
- relative viability (SK-MES-1; first compound 0.04 µM): 0.93
- relative viability (SK-MES-1; first compound 0.1265 µM): 0.973
- relative viability (SK-MES-1; first compound 0.4 µM): 0.748
- relative viability (SK-MES-1; first compound 1.265 µM): 0.396
